Patent US10765662B2, “Mono- or di-substituted indole derivatives as dengue viral replication inhibitors” (Janssen Pharmaceuticals, Inc., priority 2015, dated 2020)

How the values were obtained:
[1] = test system: DENV-2 16681 strain labeled with enhanced green fluorescent protein; assay: DENV-2 antiviral assay (eGFP fluorescence read-out in Vero cells); format: cell-based, Dengue virus; conditions: DENV-2 16681 eGFP, MOI 0.5, 3 days
Experimental: The antiviral activity of all the compounds of the invention was tested against the DENV-2 16681 strain which was labeled with enhanced green fluorescent protein (eGPF). The culture medium consists of minimal essential medium supplemented with 2% of heat-inactivated fetal calf serum, 0.04% gentamycin (50 mg/mL) and 2 mM of L-glutamine. Vero cells, obtained from ECACC, were suspended in culture medium and 25 μL was added to 384-well plates (2500 cells/well), which already contain the antiviral compounds. Typically, these plates contain a 5-fold serial dilution of 9 dilution steps of the test compound at 200 times the final concentration in 100% DMSO (200 nL). […] Finally, each plate contains wells which are assigned as virus controls (containing cells and virus in the absence of compound), cell controls (containing cells in the absence of virus and compound) and medium controls (containing medium in the absence of cells, virus and compounds). To the wells assigned as medium control, 25 μL of culture medium was added instead of Vero cells. Once the cells were added to the plates, the plates were incubated for 30 minutes at room temperature to allow the cells to distribute evenly within the wells. Next, the plates were incubated in a fully humidified incubator (37° C., 5% CO2) until the next day. Then, DENV-2 strain 16681, labeled with eGFP, was added at a multiplicity of infection (MOI) of 0.5. Therefore, 15 μL of virus suspension was added to all the wells containing test compound and to the wells assigned as virus control. In parallel, 15 μL of culture medium was added to the medium and cell controls. Next, the plates were incubated for 3 days in a fully humidified incubator (37° C., 5% CO2). At the day of the read out, the eGFP fluorescence was measured using an automated fluorescence microscope at 488 nm (blue laser). Using an in-house LIMS system, inhibition dose response curves for each compound were calculated and the half maximal effective concentration (EC50) was determined. Therefore, the percent inhibition (I) for every test concentration is calculated using the following formula: I=100*([…])/(SVC−SCC); ST, SCC and SVC are the amount of eGFP signal in the test compound, cell control and virus control wells, respectively. The EC50 represents the concentration of a compound at which the virus replication is inhibited with 50%, as measured by a 50% reduction of the eGFP fluorescent intensity compared to the virus control. The EC50 is calculated using linear interpolation (Table 1).

[2] = in vitro; format: cell-based; conditions: African green monkey, CC50
Experimental: (§1) In parallel, the toxicity of the compounds was assessed on the same plates. Once the read-out for the eGFP signal was done, 40 μL of ATPlite, a cell viability stain, was added to all wells of the 384-well plates. ATP is present in all metabolically active cells and the concentration declines very rapidly when the cells undergo necrosis or apoptosis. The ATPLite assay system is based on the production of light caused by the reaction of ATP with added luciferase and D-luciferin. The plates were incubated for 10 minutes at room temperature. Next, the plates were measured on a ViewLux. The half maximal cytotoxic concentration (CC50) was also determined, defined as the concentration required to reduce the luminescent signal by 50% compared to that of the cell control wells. Finally, the selectivity index (SI) was determined for the compounds, which was calculated as followed: SI=CC50/EC50.

[3] = test system: DENV-2 strain 16681; assay: Tetravalent RT-qPCR assay Protocol A, serotype 2; format: cell-based; conditions: Dengue virus, DENV2, 72 h; RT-qPCR serotype 2 16681, Vero cells, day 3
Experimental: (§2) The antiviral activity of the compounds of the invention was tested against DENV-1 strain TC974#666 (NCPV), DENV-2 strain 16681, DENV-3 strain H87 (NCPV) and DENV-4 strains H241 (NCPV) and EDEN (SG/06K2270DK1/2005; GenBank accession number QG398256) in a RT-qPCR assay. Therefore, Vero cells were infected with either DENV-1, or -2, or -3, or -4 in the presence or absence of test compounds. At day 3 post-infection, the cells were lysed and cell lysates were used to prepare cDNA of both a viral target (the 3′UTR of DENV; Table 2) and a cellular reference gene (β-actin, Table 2). Subsequently, a duplex real time PCR was performed on a Lightcycler480 instrument. The generated Cp value is inversely proportional to the amount of RNA expression of these targets. Inhibition of DENV replication by a test compound results in a shift of Cp's for the 3′UTR gene. On the other hand, if a test compound is toxic to the cells, a similar effect on β-actin expression will be observed. The comparative ΔΔCp method is used to calculate EC50, which is based on the relative gene expression of the target gene (3′UTR) normalized with the cellular housekeeping gene (β-actin). In addition, CC50 values are determined based on the Cp values acquired for the housekeeping gene β-actin.
(§3) The culture medium consisted of minimal essential medium supplemented with 2% of heat-inactivated fetal calf serum, 0.04% gentamycin (50 mg/mL) and 2 mM of L-glutamine. Vero cells, obtained from ECACC, were suspended in culture medium and 75 μL/well was added in 96-well plates (10000 cells/well), which already contain the antiviral compounds. […] In addition, each plate contains wells which are assigned as virus controls (containing cells and virus in the absence of compound) and cell controls (containing cells in the absence of virus and compound). Once the cells were added in the plates, the plates were incubated in a fully humidified incubator (37° C., 5% CO2) until the next day. Dengue viruses serotype-1, 2, 3 and 4 were diluted in order to obtain a Cp of ˜22-24 in the assay. Therefore, 25 μL of virus suspension, was added to all the wells containing test compound and to the wells assigned as virus control. In parallel, 25 μL of culture medium was added to the cell controls. Next, the plates were incubated for 3 days in a fully humidified incubator (37° C., 5% CO2). After 3 days, the supernatant was removed from the wells and the cells were washed twice with ice-cold PBS (˜100 μL). The cell pellets within the 96-well plates were stored at −80° C. for at least 1 day. Next, RNA was extracted using the Cells-to-CT™ lysis kit, according to the manufacturer's guideline (Life Technologies). The cell lysates can be stored at −80° C. or immediately used in the reverse transcription step.
(§4) In preparation of the reverse transcription step, mix A (table 3A) was prepared and 7.57 μL/well was dispensed in a 96-well plate. After addition of 5 μL of the cell lysates, a five minute denaturation step at 75° C. was performed (table 3B). Afterwards, 7.43 μL of mix B was added (table 3C) and the reverse transcription step was initiated (table 3D) to generate cDNA.
(§5) Finally, a RT-qPCR mix was prepared, mix C (table 4A), and 22.02 μL/well was dispensed in 96-well LightCycler qPCR plates to which 3 μL of cDNA was added and the qPCR was performed according to the conditions in table 4B on a LightCycler 480.
(§6) Using the LightCycler software and an in-house LIMS system, dose response curves for each compound were calculated and the half maximal effective concentration (EC50) and the half maximal cytotoxic concentration (CC50) were determined (Tables 5-8).

[4] = test system: Vero cells; assay: in vitro; format: cell-based; conditions: African green monkey
Experimental: as §1

[5] = test system: DENV-4 strain H241; assay: Tetravalent RT-qPCR assay Protocol A, serotype 4 H241; format: cell-based; conditions: Dengue virus, DENV4, Vero, 72 h
Experimental: as §2, §3, §4, §5, §6

[6] = in vitro; format: cell-based; conditions: African green monkey
Experimental: as §2, §3, §6

[7] = test system: DENV-3 strain H87; assay: Tetravalent RT-qPCR assay Protocol A, serotype 3; format: cell-based; conditions: Dengue virus, DENV3, 72 h; RT-qPCR serotype 3 H87, Vero cells, day 3
Experimental: as §2, §3, §4, §5, §6

[8] = test system: DENV-1 strain TC974#666; assay: Tetravalent RT-qPCR assay Protocol A, serotype 1; format: cell-based; conditions: Dengue virus, DENV1, 72 h; RT-qPCR serotype 1 TC974#666, Vero cells, day 3
Experimental: as §2, §3, §4, §5, §6

[9] = Dengue virus, DENV2, Vero, 72 h

Structure (SMILES) | EC50 [1, 9] [nM] | CC50 [2] [nM] | melting point [°C] | EC50 [1] [nM] | EC50 [3] [nM] | CC50 [4] [nM] | EC50 [5] [nM] | CC50 at 3 days [6] [nM] | EC50 [7] [nM] | EC50 [8] [nM]
COc1cc(NC(C(=O)c2c[nH]c3cc(Cl)ccc23)c2ccc(Cl)cc2OCCO)cc(S(C)(=O)=O)c1 (racemic) [Compound 2, 1-(6-chloro-1H-indol-3-yl)-2-(4-chloro-2-(2-hydroxyethoxy)phenyl)-2-((3-methoxy-5-(methylsulfonyl)phenyl)amino)ethanone] | 0.27 | 4200 | 121 |  |  |  |  |  |  | 
COc1cc(NC(C(=O)c2c[nH]c3cc(OC)ccc23)c2ccc(Cl)cc2OCCO)cc(S(C)(=O)=O)c1 (racemic) [Compound 3, 2-(4-chloro-2-(2-hydroxyethoxy)phenyl)-1-(6-methoxy-1H-indol-3-yl)-2-((3-methoxy-5-(methylsulfonyl)phenyl)amino)ethanone] | 0.54 | 12000 | 149 |  |  |  |  |  |  | 
COc1cc(NC(C(=O)c2c[nH]c3c(C)c(F)ccc23)c2ccc(Cl)cc2OCCO)cc(S(C)(=O)=O)c1 (racemic) [Compound 4, 2-(4-chloro-2-(2-hydroxyethoxy)phenyl)-1-(6-fluoro-7-methyl-1H-indol-3-yl)-2-((3-methoxy-5-(methylsulfonyl)phenyl)amino)ethanone] | 0.42 | 3700 | 173 |  |  |  |  |  |  | 
COc1cc(NC(C(=O)c2c[nH]c3cc(F)ccc23)c2ccc(Cl)cc2OCCO)cc(S(C)(=O)=O)c1 (single isomer, unassigned) [Compound 1A, 2-(4-chloro-2-(2-hydroxyethoxy)phenyl)-1-(6-fluoro-1H-indol-3-yl)-2-((3-methoxy-5-(methylsulfonyl)phenyl)amino)ethanone] |  |  |  | 0.24 | 0.24 | 3700 | 71 | > 2500 | 9.6 | 1.3
COc1cc(NC(C(=O)c2c[nH]c3cc(F)c(C)cc23)c2ccc(Cl)cc2OCCO)cc(S(C)(=O)=O)c1 (single isomer, unassigned) [Compound 8A, 2-(4-chloro-2-(2-hydroxyethoxy)phenyl)-1-(6-fluoro-5-methyl-1H-indol-3-yl)-2-((3-methoxy-5-(methylsulfonyl)phenyl)amino)ethanone] |  | > 2500 |  | 0.11 | 0.27 |  | 36 |  | 4.2 | 0.39
COc1cc(NC(C(=O)c2c[nH]c3ccc(C(F)(F)F)cc23)c2ccc(Cl)cc2OCCO)cc(S(C)(=O)=O)c1 (single isomer, unassigned) [Compound 9B, 2-(4-chloro-2-(2-hydroxyethoxy)phenyl)-2-((3-methoxy-5-(methylsulfonyl)phenyl)amino)-1-(5-(trifluoromethyl)-1H-indol-3-yl)ethanone] |  |  |  | 0.061 | 0.054 | > 2400 | 8.1 | 2900 | 1.2 | 0.083
COc1cc(NC(C(=O)c2c[nH]c3ccc(OC(F)(F)F)cc23)c2ccc(Cl)cc2OCCO)cc(S(C)(=O)=O)c1 (single isomer, unassigned) [Compound 10B, 2-(4-chloro-2-(2-hydroxyethoxy)phenyl)-2-((3-methoxy-5-(methylsulfonyl)phenyl)amino)-1-(5-(trifluoromethoxy)-1H-indol-3-yl)ethanone] |  |  |  | 0.067 | 0.049 | 2400 | 6.9 | > 2400 | 1.4 | 0.071
COc1cc(NC(C(=O)c2c[nH]c3cc(OC)c(OC(F)(F)F)cc23)c2ccc(Cl)cc2OCCO)cc(S(C)(=O)=O)c1 (single isomer, unassigned) [Compound 11B, 2-(4-chloro-2-(2-hydroxyethoxy)phenyl)-2-((3-methoxy-5-(methylsulfonyl)phenyl)amino)-1-(6-methoxy-5-(trifluoromethoxy)-1H-indol-3-yl)ethanone] |  |  |  | 0.089 | 0.062 | > 2300 | 11 | > 2500 | 1.3 | 0.12
COc1cc(NC(C(=O)c2c[nH]c3c(C)cc(OC(F)(F)F)cc23)c2ccc(Cl)cc2OCCO)cc(S(C)(=O)=O)c1 (single isomer, unassigned) [Compound 12B, 2-(4-chloro-2-(2-hydroxyethoxy)phenyl)-2-((3-methoxy-5-(methylsulfonyl)phenyl)amino)-1-(7-methyl-5-(trifluoromethoxy)-1H-indol-3-yl)ethanone] |  |  |  | 0.034 | 0.053 |  | 5.5 | > 2300 | 1.1 | 0.086
